Where two headings read alike, the source gives them in different places.
Key:
[1] = biological target: T1, IKZF2 (Homo sapiens, UniProt Q96SW2+Q9UKS7); experiment: IKZF2 degradation assay, HiBiT method (Nano-Glo HiBiT Lytic Assay); type: cell-based; details: JURKAT.21 (IKZF2-HiBiT) cells
T1 construct: endogenously expressing IKZF2 with HiBiT fusion tag via CRISPR; host or cells: JURKAT.21 (IKZF2-HiBiT), CRISPR knock-in
Source text: Example 61 IKZF2 Degradation Assay
RPMI 1640 Medium without phenol red and fetal bovine serum (FBS) were purchased from Gibco (Grand Island, NY, USA). Nano-Glo® HiBiT Lytic Assay System was purchased from Promega (Madison, WI, USA). JURKAT.21 (IKZF2-HiBiT) cell line, endogenously expressing IKZF2 with HiBiT fusion tag via CRISPR, was purchasing from Synthego (Menlo Park, CA, USA). Cell culture flasks and 384-well microplates were acquired from VWR (Radnor, PA, USA).
IKZF2 Degradation Analysis
(§1) IKZF2 degradation was determined based on quantification of luminescent signal using Nano-Glo® HiBiT Lytic Assay kit. Test compounds were added to the 384-well plate from a top concentration of 10 µM with 11 points, half log titration in duplicates. JURKAT.216 cells were added into 384-well plates at a cell density of 5000 cells per well. The plates were kept at 37° C. with 5% CO2 for 6 or 24 hours. The cells treated in the absence of the test compound were the negative control and the cells without Nano-Glo® HiBiT Lytic reagent were the positive control. After 6-hour or 24-hour incubation, Nano-Glo® HiBiT Lytic Assay reagents were added to the cells. Luminescence was acquired on EnVision™ Multilabel Reader (PerkinElmer, Santa Clara, CA, USA).

[2] = biological target: T2, GSPT1 (Homo sapiens, UniProt P15170+Q96SW2); experiment: GSPT1 degradation assay, HiBiT method (Nano-Glo HiBiT Lytic Assay); type: cell-based; details: 293T.114 (HiBiT-GSPT1) cells, 6 hours
T2 construct: endogenously expressing GSPT1 with HiBiT fusion tag via CRISPR; endogenous in cells; host or cells: 293T.114 (HiBiT-GSPT1), CRISPR knock-in, generated in house
T2 sequence (P15170 whole entry, the tested form may be a part): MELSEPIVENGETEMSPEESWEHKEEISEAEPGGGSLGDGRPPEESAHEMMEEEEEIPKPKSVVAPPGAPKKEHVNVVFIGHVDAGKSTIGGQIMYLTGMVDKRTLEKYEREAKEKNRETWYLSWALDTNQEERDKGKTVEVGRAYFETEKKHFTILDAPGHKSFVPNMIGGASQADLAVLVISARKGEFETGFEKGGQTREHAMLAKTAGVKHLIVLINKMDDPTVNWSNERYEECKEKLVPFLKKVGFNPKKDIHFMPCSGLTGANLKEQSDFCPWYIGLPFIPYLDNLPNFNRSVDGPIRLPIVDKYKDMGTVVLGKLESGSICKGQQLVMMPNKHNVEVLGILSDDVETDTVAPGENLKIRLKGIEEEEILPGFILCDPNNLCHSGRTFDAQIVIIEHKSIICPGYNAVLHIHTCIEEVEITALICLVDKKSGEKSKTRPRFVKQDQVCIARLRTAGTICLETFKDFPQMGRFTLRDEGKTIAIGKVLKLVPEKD
T2 sequence (Q96SW2 whole entry, the tested form may be a part): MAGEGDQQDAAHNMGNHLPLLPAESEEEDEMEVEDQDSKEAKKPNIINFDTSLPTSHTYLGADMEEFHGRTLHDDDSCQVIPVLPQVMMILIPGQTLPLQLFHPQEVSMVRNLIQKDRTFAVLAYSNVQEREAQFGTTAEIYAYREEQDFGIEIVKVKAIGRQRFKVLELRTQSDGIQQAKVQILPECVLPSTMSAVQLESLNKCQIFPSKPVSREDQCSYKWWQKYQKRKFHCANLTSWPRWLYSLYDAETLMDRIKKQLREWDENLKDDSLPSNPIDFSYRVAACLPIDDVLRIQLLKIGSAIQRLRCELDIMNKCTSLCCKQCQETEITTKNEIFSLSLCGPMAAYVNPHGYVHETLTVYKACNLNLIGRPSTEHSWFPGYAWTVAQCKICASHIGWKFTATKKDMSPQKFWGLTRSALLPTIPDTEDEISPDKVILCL
T2 sequence (Q16531 whole entry partner, the tested form may be a part): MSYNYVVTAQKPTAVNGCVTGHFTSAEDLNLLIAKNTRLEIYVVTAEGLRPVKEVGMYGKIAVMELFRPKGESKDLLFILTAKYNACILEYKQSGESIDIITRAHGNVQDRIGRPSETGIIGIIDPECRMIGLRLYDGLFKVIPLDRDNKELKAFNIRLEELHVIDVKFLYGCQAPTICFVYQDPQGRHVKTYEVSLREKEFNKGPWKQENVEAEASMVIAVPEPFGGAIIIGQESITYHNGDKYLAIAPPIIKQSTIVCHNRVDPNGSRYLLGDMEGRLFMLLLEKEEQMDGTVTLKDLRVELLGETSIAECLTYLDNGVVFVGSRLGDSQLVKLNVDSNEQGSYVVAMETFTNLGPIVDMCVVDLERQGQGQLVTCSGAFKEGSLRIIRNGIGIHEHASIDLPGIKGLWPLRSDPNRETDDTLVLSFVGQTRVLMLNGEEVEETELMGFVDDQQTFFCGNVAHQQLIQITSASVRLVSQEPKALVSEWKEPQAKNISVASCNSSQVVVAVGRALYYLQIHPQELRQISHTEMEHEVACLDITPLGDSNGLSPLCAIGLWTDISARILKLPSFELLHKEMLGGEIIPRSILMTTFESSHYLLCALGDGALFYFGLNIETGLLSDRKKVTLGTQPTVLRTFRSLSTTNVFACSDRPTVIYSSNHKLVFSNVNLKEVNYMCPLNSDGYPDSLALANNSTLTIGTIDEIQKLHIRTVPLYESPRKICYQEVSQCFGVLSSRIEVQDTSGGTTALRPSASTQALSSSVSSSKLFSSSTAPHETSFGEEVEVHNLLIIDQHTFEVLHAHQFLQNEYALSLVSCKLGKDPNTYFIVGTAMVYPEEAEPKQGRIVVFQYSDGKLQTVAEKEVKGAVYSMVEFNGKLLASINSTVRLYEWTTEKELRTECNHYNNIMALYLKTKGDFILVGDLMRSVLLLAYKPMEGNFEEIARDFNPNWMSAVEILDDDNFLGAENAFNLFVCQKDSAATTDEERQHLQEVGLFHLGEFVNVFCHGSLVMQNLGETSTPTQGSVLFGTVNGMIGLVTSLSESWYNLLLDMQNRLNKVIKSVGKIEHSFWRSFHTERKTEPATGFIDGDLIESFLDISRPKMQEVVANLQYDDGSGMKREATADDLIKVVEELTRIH
Description: Example 62 GSPT1 Degradation Assay
DMEM no-phenol red medium and fetal bovine serum (FBS) were purchased from Gibco (Grand Island, NY, USA). Nano-Glo® HiBiT Lytic Assay System was purchased from Promega (Madison, WI, USA). 293T.114 (HiBiT-GSPT1) cell line was generated in house, endogenously expressing GSPT1 with HiBiT fusion tag via CRISPR. Cell culture flasks and 384-well microplates were acquired from VWR (Radnor, PA, USA).
GSPT1 Degradation Analysis
as §1, with “GSPT1” for “IKZF2”, “293T.114” for “JURKAT.216”, “6000” for “5000”, “6” for “6 or 24”, “6-hour” for “6-hour or 24-hour”, “designated wells.” for “cells.”

T1 sequence (Q9UKS7 whole entry, the tested form may be a part): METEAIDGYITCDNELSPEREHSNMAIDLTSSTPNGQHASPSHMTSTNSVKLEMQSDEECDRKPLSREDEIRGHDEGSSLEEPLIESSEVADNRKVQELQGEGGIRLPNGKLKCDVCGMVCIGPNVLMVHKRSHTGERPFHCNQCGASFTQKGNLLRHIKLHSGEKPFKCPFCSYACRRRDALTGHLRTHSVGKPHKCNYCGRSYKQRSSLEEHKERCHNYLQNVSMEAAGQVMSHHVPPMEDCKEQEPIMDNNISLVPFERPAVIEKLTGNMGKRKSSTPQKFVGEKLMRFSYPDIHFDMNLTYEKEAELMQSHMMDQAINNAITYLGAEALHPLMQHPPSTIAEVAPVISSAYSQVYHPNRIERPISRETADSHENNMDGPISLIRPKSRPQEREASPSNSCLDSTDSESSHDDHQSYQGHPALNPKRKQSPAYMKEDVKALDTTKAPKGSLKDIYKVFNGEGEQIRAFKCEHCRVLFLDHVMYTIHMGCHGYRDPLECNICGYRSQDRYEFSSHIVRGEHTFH
T1 sequence (Q96SW2 whole entry, the tested form may be a part): as the sequence (Q96SW2 whole entry, the tested form may be a part) above
T1 sequence (Q16531 whole entry partner, the tested form may be a part): as the sequence (Q16531 whole entry partner, the tested form may be a part) above

DC50 ([1]; 6 hours, read-out: HiBiT-Degradation JURKAT.21 IKZF2 6 hours DC50): > 10 µM
Emax ([1]; 6 hours, read-out: HiBiT-Degradation JURKAT.21 IKZF2 6 hours Emax): 60 to 95%
DC50 ([1]; 24 hours, read-out: HiBiT-Degradation JURKAT.21 IKZF2 24 hours DC50): > 10 µM
Emax ([1]; 24 hours, read-out: HiBiT-Degradation JURKAT.21 IKZF2 24 hours Emax): 60 to 95%
DC50 [2]: > 10 µM
Emax [2]: 60 to 95%
Structure (SMILES): O=C1CCC(N2C(=O)c3ccc(C4CCN(Cc5cccc(S(=O)(=O)N6CCOCC6)c5)CC4)c4nccc2c34)C(=O)N1 (stereo not drawn) [Compound 128, 3-[21-[1-[(3-morpholinosulfonylphenyl)methyl]-4-piperidyl]-29-oxo-31,35-diazatricyclododeca-3(21),4(22),5(23),6(31),24-pentaen-35-yl]piperidine-2,6-dione]

— patent publication US20230339902A1, “TRICYCLIC LIGANDS FOR DEGRADATION OF IKZF2 OR IKZF4” (C4 Therapeutics, Inc., priority 2020, published 2023)
